Laboratory results taken from patent US20240101540A1, “TARGETED PROTEIN DEGRADATION OF PARP14 FOR USE IN THERAPY” (Ribon Therapeutics, Inc., priority 2022, published 2024).
Where a name gives a salt, the structure may show the parent alone.

Target: T1, HiBiT tagged PARP14 (Homo sapiens, UniProt Q460N5)
T1 construct: engineered to contain a HiBiT tag on both alleles of the PARP14 gene; endogenous in cells; host or cells: Jurkat cells stably transfected with LgBiT (Promega), PARP14 locus edited by CRISPR/Cas9
Test: HiBiT assay for the degradation of PARP14 (HiBiT tagged PARP14 in LgBiT expressing Jurkat cells, 2 or 24 hours)
Format: cell-based
Details: Assay B (Example B): HiBiT tagged PARP14 degradation in LgBiT expressing Jurkat cells, read-out: DC50
Method in brief: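 Jurkat cells stably expressing LgBiT with CRISPR knock-in of C-terminal HiBiT on both PARP14 alleles, 5,000 cells/well, treated with compound dose-response at 37 °C for 2 or 24 h. Live Cell Substrate luminescence normalised to 0.1% DMSO wells; DC50 from 4-parameter fit with floating top, bottom, Hill.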

T1 sequence (Q460N5 whole entry): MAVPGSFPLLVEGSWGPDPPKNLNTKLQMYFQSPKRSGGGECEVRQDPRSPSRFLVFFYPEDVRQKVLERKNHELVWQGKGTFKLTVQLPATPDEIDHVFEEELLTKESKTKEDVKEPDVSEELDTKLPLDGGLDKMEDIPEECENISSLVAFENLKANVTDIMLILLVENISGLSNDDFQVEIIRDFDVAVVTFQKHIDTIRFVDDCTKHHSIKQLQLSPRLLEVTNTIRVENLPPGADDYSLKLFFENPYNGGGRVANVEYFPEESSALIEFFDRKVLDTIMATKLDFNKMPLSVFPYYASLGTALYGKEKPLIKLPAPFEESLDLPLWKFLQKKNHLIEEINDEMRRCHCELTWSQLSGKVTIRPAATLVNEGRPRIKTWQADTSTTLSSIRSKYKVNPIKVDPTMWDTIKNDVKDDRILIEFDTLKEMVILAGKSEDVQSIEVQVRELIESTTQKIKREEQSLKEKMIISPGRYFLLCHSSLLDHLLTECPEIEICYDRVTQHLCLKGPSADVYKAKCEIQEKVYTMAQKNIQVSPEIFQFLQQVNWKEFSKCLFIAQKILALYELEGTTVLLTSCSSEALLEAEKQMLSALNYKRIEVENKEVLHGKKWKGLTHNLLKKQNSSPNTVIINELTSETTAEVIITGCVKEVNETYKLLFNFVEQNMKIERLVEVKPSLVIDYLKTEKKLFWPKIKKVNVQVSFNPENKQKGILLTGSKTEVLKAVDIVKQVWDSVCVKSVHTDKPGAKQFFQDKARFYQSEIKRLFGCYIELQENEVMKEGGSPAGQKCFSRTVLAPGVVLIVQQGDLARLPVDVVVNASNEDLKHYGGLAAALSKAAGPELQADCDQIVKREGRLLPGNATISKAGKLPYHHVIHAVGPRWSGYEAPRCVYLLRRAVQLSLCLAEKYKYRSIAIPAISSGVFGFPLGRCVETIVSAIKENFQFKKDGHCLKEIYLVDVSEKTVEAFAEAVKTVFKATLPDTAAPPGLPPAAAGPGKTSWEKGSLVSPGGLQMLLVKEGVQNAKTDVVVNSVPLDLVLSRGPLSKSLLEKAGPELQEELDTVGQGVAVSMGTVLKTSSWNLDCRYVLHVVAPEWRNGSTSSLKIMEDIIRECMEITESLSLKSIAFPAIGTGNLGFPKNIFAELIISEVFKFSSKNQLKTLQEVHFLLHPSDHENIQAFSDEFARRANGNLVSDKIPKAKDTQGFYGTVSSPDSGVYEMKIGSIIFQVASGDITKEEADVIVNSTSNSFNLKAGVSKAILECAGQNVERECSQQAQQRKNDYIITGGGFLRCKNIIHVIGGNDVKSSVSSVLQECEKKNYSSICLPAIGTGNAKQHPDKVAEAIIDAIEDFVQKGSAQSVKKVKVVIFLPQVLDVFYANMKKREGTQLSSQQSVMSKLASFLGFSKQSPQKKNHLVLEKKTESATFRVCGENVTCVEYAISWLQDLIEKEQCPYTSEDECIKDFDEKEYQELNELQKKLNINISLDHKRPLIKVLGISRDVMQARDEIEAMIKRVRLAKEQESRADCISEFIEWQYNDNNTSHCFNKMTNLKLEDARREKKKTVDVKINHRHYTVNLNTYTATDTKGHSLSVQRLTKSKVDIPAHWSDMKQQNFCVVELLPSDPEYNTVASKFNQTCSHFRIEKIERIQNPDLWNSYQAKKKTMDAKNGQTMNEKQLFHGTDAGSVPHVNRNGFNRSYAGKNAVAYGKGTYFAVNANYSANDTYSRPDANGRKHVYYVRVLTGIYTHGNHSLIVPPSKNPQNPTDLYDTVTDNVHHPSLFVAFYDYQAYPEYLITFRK

A DC50 of under 30 nM was found for `O=C1CCC(Nc2ccc(N3CCN(CCN4CCC(COc5cc(F)c6c(=O)[nH]c(CC7CC7)nc6c5)CC4)CC3)c(F)c2)C(=O)N1` (centres unmarked) [Example 105, 3-((4-(4-(2-(4-(((2-(cyclopropylmethyl)-5-fluoro-4-oxo-3,4-dihydroquinazolin-7-yl)oxy)methyl)piperidin-1-yl)ethyl)piperazin-1-yl)-3-fluorophenyl)amino)piperidine-2,6-dione formate] in this work.

A DC50 of under 30 nM was found for `O=C1CCC(Nc2ccc(N3CCC(N4CC(C(=O)N5CCC(COc6cc(F)c7c(=O)[nH]c(CSC8CCOCC8)nc7c6)CC5)C4)CC3)c(F)c2)C(=O)N1` (centres unmarked) [Example 171, 3-((3-fluoro-4-(4-(3-(4-(((5-fluoro-4-oxo-2-(((tetrahydro-2H-pyran-4-yl)thio)methyl)-3,4-dihydroquinazolin-7-yl)oxy)methyl)piperidine-1-carbonyl)azetidin-1-yl)piperidin-1-yl)phenyl)amino)piperidine-2,6-dione] in this work.

A DC50 of under 30 nM was found for `O=C1CCC(Nc2ccc(N3CCN(CCN4CCC(COc5cc(F)c6c(=O)[nH]c(CSC7CCCCC7)nc6c5)CC4)CC3)c(F)c2)C(=O)N1` (centres unmarked) [Example 194, 3-({4-[4-(2-{4-[({2-[(cyclohexylsulfanyl)methyl]-5-fluoro-4-oxo-3H-quinazolin-7-yl}oxy)methyl]piperidin-1-yl}ethyl)piperazin-1-yl]-3-fluorophenyl}amino)piperidine-2,6-dione] in this work.

A DC50 of under 30 nM was found for `O=C1CCC(NC(=O)c2ccc(N3CCN(CCN4CCC(COc5cc(F)c6c(=O)[nH]c(CSC7CCOCC7)nc6c5)CC4)CC3)cc2F)C(=O)N1` (centres unmarked) [Example 93, N-(2,6-dioxopiperidin-3-yl)-2-fluoro-4-(4-(2-(4-(((5-fluoro-4-oxo-2-(((tetrahydro-2H-pyran-4-yl)thio)methyl)-3,4-dihydroquinazolin-7-yl)oxy)methyl)piperidin-1-yl)ethyl)piperazin-1-yl)benzamide] in this work.

A DC50 of under 30 nM was found for `Cn1nc(N2CCC(=O)NC2=O)c2cc(F)c(N3CCC(N4CC(N5CCC(COc6cc(F)c7c(=O)[nH]c(CSC8CCOCC8)nc7c6)CC5)C4)CC3)cc21` [Example 164, 1-(5-fluoro-6-(4-(3-(4-(((5-fluoro-4-oxo-2-(((tetrahydro-2H-pyran-4-yl)thio)methyl)-3,4-dihydroquinazolin-7-yl)oxy)methyl)piperidin-1-yl)azetidin-1-yl)piperidin-1-yl)-1-methyl-1H-indazol-3-yl)dihydropyrimidine-2,4(1H,3H)-dione] in this work.

A DC50 of under 30 nM was found for `O=C1CCC(Nc2ccc(N3CCC4(CCN(CCOc5cc(F)c6c(=O)[nH]c(CSC7CCOCC7)nc6c5)CC4)CC3)c(F)c2)C(=O)N1` (centres unmarked) [Example 215, 3-((3-fluoro-4-(9-(2-((5-fluoro-4-oxo-2-(((tetrahydro-2H-pyran-4-yl)thio)methyl)-3,4-dihydroquinazolin-7-yl)oxy)ethyl)-3,9-diazaspiro[5.5]undecan-3-yl)phenyl)amino)piperidine-2,6-dione] in this work.

A DC50 of under 30 nM was found for `O=C1CCC(Nc2ccc(N3CCC(N4CCC(C(=O)N5CCC(COc6cc(F)c7c(=O)[nH]c(CSC8CCOCC8)nc7c6)CC5)CC4)CC3)c(F)c2)C(=O)N1` (centres unmarked) [Example 225, 3-((3-fluoro-4-(4-(4-(((5-fluoro-4-oxo-2-(((tetrahydro-2H-pyran-4-yl)thio)methyl)-3,4-dihydroquinazolin-7-yl)oxy)methyl)piperidine-1-carbonyl)-[1,4′-bipiperidin]-1′-yl)phenyl)amino)piperidine-2,6-dione] in this work.

A DC50 of under 30 nM was found for `O=C1CCC(Nc2ccc(N3CCC(C(=O)N4CCC(N5CCC(COc6cc(F)c7c(=O)[nH]c(CSC8CCOCC8)nc7c6)CC5)CC4)CC3)c(F)c2)C(=O)N1` (centres unmarked) [Example 173, 3-((3-fluoro-4-(4-(4-(((5-fluoro-4-oxo-2-(((tetrahydro-2H-pyran-4-yl)thio)methyl)-3,4-dihydroquinazolin-7-yl)oxy)methyl)-[1,4′-bipiperidine]-1′-carbonyl)piperidin-1-yl)phenyl)amino)piperidine-2,6-dione formate] in this work.
